Data: patent US20040029965A1, “Formulations for reducing or eliminating toxicity of enviromental hormones containing ursodeoxycholic acid” (priority 2000, published 2004)

Legend:
Format in all cases: in vivo
[1] = tested on: C57B1/6J mice; experiment: Optical microscopy of testes (histopathological findings)
Procedure: (§1) 2,3,7,8-tetrachlorodibenzo-p-dioxin (TCDD) dissolved in toluene (purity of 95% or more as a result of gas chromatography analysis), manufactured by Chem. Services Inc. in USA, was volatilized with nitrogen to obtain powder. The obtained powder was dissolved in a mixed solvent containing acetone and corn oil with a volume ratio of 1:6. The resulting solution each containing 110, 27.5 and 6.9 μg/kg of TCDD was subcutaneously injected to mice at a volume of 5 ml per body weight. […] The mice were supplied with the feed from 10 days before (pre-administration) to 60 days after administration of TCDD (post-administration).
Upon completion of the experiment for 60 days, the experimental animals were fasted for 24 hours and anesthetized with ether. Then, they were abdominally incised and blood was gathered from abdominal vena cava. They were sacrificed by the release of blood. Liver, kidneys, testes and epididymides were extracted and all the extracted organs were weighed. Only the testes were separately kept and observed under optical and electron microscopes. For biochemical finding test, serum was separated from blood with a centrifuge and the separated serum was analyzed with an automated blood biochemical analyzer, Dimension (Dupont, USA). Blood was put to another blood gathering bottle and then, analyzed with an automated blood cell analyzer, Celldyn (Abbott, USA).
The extracted testes were fixed in 10% neutralized formalin buffer for 24 hours and washed with the flowing water. It was subsequently dehydrated with ethanol and cleared with xylene and then, embedded with paraffin. It was sectioned with microtome (microm is HM 440E) to a thickness of 2-3 μm and then, double stained with hematoxylin and eosin to observe under an optical microscope.

[2] = tested on: C57B1/6J mice; experiment: Water uptake of mice after a single subcutaneous injection of TCDD; design: unit not given here
Procedure: (§2) Male C57B1/6J mice of 5 weeks old having the average weight of 18-22 g which had been bred in CRJ (Charles River in Japan) were purchased and used in this example as experimental animals. Those mice were acclimated under the constant breeding condition, i.e. the temperature of 24±1° C., the humidity of 60±10% and the light and darkness cycle of 12 hours, for one week and thereafter, utilized in the experiment.
(§3) The Experimental animals were supplied with Purina powdered feed (purchased from Hae Eun Trade) and supplied with water ad libitum. All the animals were weighed twice a week during experimentation.
as §1
(§4) The results are expressed as Mean±Standard Deviation values. For statistical analysis of the body weight, feed and water uptake, biochemical findings, hematological findings and the weight of organ in an acute toxicity test, verification was performed by one way analysis of variance (ANOVA) in case of equal distribution. In case significance was recognized in ANOVA, the Student's t-test was performed in the levels of p<0.05 and p<0.01.

[3] = tested on: C57B1/6J mice; experiment: Feed uptake of mice after a single subcutaneous injection of TCDD; design: unit not given here
Procedure: as §2, §3, §1, §4

[4] = TCDD 6.9 μg/kg + UDCA 0.125 wt %, 10 days
[5] = TCDD 6.9 μg/kg + UDCA 0.125 wt %, 20 days
[6] = TCDD 6.9 μg/kg + UDCA 0.125 wt %, 30 days
[7] = TCDD 6.9 μg/kg + UDCA 0.125 wt %, 40 days
[8] = TCDD 6.9 μg/kg + UDCA 0.125 wt %, 50 days
[9] = TCDD 6.9 μg/kg + UDCA 0.125 wt %, 60 days
[10] = TCDD 6.9 μg/kg + UDCA 0.25 wt %, 10 days
[11] = TCDD 6.9 μg/kg + UDCA 0.25 wt %, 20 days
[12] = TCDD 6.9 μg/kg + UDCA 0.25 wt %, 30 days
[13] = TCDD 6.9 μg/kg + UDCA 0.25 wt %, 40 days
[14] = TCDD 6.9 μg/kg + UDCA 0.25 wt %, 50 days
[15] = TCDD 6.9 μg/kg + UDCA 0.25 wt %, 60 days
[16] = TCDD 6.9 μg/kg + UDCA 0.5 wt %, 10 days
[17] = TCDD 6.9 μg/kg + UDCA 0.5 wt %, 20 days
[18] = TCDD 6.9 μg/kg + UDCA 0.5 wt %, 30 days
[19] = TCDD 6.9 μg/kg + UDCA 0.5 wt %, 40 days
[20] = TCDD 6.9 μg/kg + UDCA 0.5 wt %, 50 days
[21] = TCDD 6.9 μg/kg + UDCA 0.5 wt %, 60 days
[22] = TCDD 27.5 μg/kg + UDCA 0.125 wt %, 10 days
[23] = TCDD 27.5 μg/kg + UDCA 0.125 wt %, 20 days
[24] = TCDD 27.5 μg/kg + UDCA 0.125 wt %, 30 days
[25] = TCDD 27.5 μg/kg + UDCA 0.125 wt %, 40 days
[26] = TCDD 27.5 μg/kg + UDCA 0.125 wt %, 50 days
[27] = TCDD 27.5 μg/kg + UDCA 0.125 wt %, 60 days
[28] = TCDD 27.5 μg/kg + UDCA 0.25 wt %, 10 days
[29] = TCDD 27.5 μg/kg + UDCA 0.25 wt %, 20 days
[30] = TCDD 27.5 μg/kg + UDCA 0.25 wt %, 30 days
[31] = TCDD 27.5 μg/kg + UDCA 0.25 wt %, 40 days
[32] = TCDD 27.5 μg/kg + UDCA 0.25 wt %, 50 days
[33] = TCDD 27.5 μg/kg + UDCA 0.25 wt %, 60 days
[34] = TCDD 27.5 μg/kg + UDCA 0.5 wt %, 10 days
[35] = TCDD 27.5 μg/kg + UDCA 0.5 wt %, 20 days
[36] = TCDD 27.5 μg/kg + UDCA 0.5 wt %, 30 days

Q: With `C[C@H](CCC(=O)O)[C@H]1CC[C@H]2[C@@H]3[C@@H](O)C[C@@H]4C[C@H](O)CC[C@]4(C)[C@H]3CC[C@]12C` [UDCA, 3α, 7β-dihydroxy-5β-cholanoic acid] as the compound, how does the “seminiferous tubules, optical microphotograph” value ([1]; TCDD 27.5 μg/kg + 0.5% by weight of UDCA, FIG. 3) read?
A: normal seminiferous tubules were observed

Q: What about the “histopathological findings of testes under an optical microscope” value ([1]; group exposed to UDCA (with TCDD)) of the same compound?
A: seminiferous tubules were found to have the similar shape to that of the solvent control

Q: What about the water uptake [2, 4] of the same compound?
A: 4.54 ± 0.71

Q: And the water uptake [2, 5]?
A: 3.75 ± 0.90

Q: And the water uptake [2, 6]?
A: 4.00 ± 0.00

Q: And the water uptake [2, 7]?
A: 4.00 ± 0.00

Q: And the water uptake [2, 8]?
A: 4.06 ± 1.34

Q: What about the water uptake [2, 9] of the same compound?
A: 4.64 ± 0.51

Q: What about the water uptake [2, 10] of the same compound?
A: 4.27 ± 1.16

Q: What about the water uptake [2, 11] of the same compound?
A: 3.83 ± 1.04

Q: And the water uptake [2, 12]?
A: 4.00 ± 0.00

Q: What about the water uptake [2, 13] of the same compound?
A: 3.60 ± 0.57

Q: What about the water uptake [2, 14] of the same compound?
A: 4.28 ± 1.02

Q: And the water uptake [2, 15]?
A: 4.69 ± 0.43

Q: And the water uptake [2, 16]?
A: 4.12 ± 0.94

Q: What about the water uptake [2, 17] of the same compound?
A: 3.80 ± 0.70

Q: What about the water uptake [2, 18] of the same compound?
A: 4.00 ± 0.63

Q: What about the water uptake [2, 19] of the same compound?
A: 3.78 ± 0.31

Q: What about the water uptake [2, 20] of the same compound?
A: 4.35 ± 1.08

Q: And the water uptake [2, 21]?
A: 5.06 ± 0.70

Q: And the water uptake [2, 22]?
A: 3.67 ± 1.10

Q: And the water uptake [2, 23]?
A: 3.92 ± 1.13

Q: What about the water uptake [2, 24] of the same compound?
A: 4.30 ± 0.42

Q: What about the water uptake [2, 25] of the same compound?
A: 4.20 ± 0.28

Q: And the water uptake [2, 26]?
A: 4.44 ± 0.79

Q: What about the water uptake [2, 27] of the same compound?
A: 4.81 ± 0.26

Q: And the water uptake [2, 28]?
A: 4.04 ± 0.75

Q: What about the water uptake [2, 29] of the same compound?
A: 3.92 ± 0.63

Q: What about the water uptake [2, 30] of the same compound?
A: 4.00 ± 0.00

Q: And the water uptake [2, 31]?
A: 4.00 ± 0.00

Q: And the water uptake [2, 32]?
A: 4.44 ± 0.79

Q: What about the water uptake [2, 33] of the same compound?
A: 4.81 ± 0.26

Q: What about the water uptake [2, 34] of the same compound?
A: 3.91 ± 0.95

Q: What about the water uptake [2, 35] of the same compound?
A: 4.35 ± 0.98

Q: What about the water uptake [2, 36] of the same compound?
A: 4.44 ± 0.00

Q: And the water uptake ([2]; TCDD 27.5 μg/kg + UDCA 0.5 wt %, 40 days)?
A: 4.44 ± 0.00

Q: What about the water uptake ([2]; TCDD 27.5 μg/kg + UDCA 0.5 wt %, 50 days) of the same compound?
A: 4.41 ± 1.00

Q: And the water uptake ([2]; TCDD 27.5 μg/kg + UDCA 0.5 wt %, 60 days)?
A: 4.88 ± 0.33

Q: And the water uptake ([2]; TCDD 110.0 μg/kg + UDCA 0.125 wt %, 10 days)?
A: 4.03 ± 1.21

Q: What about the water uptake ([2]; TCDD 110.0 μg/kg + UDCA 0.125 wt %, 20 days) of the same compound?
A: 4.07 ± 0.64

Q: What about the water uptake ([2]; TCDD 110.0 μg/kg + UDCA 0.125 wt %, 30 days) of the same compound?
A: 3.33 ± 0.94

Q: And the water uptake ([2]; TCDD 110.0 μg/kg + UDCA 0.25 wt %, 10 days)?
A: 3.79 ± 1.06

Q: What about the water uptake ([2]; TCDD 110.0 μg/kg + UDCA 0.25 wt %, 20 days) of the same compound?
A: 3.83 ± 0.14

Q: What about the water uptake ([2]; TCDD 110.0 μg/kg + UDCA 0.25 wt %, 30 days) of the same compound?
A: 4.67 ± 0.94

Q: And the water uptake ([2]; TCDD 110.0 μg/kg + UDCA 0.25 wt %, 40 days)?
A: 4.14 ± 0.20

Q: And the water uptake ([2]; TCDD 110.0 μg/kg + UDCA 0.5 wt %, 10 days)?
A: 3.75 ± 0.50

Q: And the water uptake ([2]; TCDD 110.0 μg/kg + UDCA 0.5 wt %, 20 days)?
A: 3.42 ± 0.80

Q: What about the water uptake ([2]; TCDD 110.0 μg/kg + UDCA 0.5 wt %, 30 days) of the same compound?
A: 4.20 ± 0.28

Q: And the water uptake ([2]; TCDD 110.0 μg/kg + UDCA 0.5 wt %, 40 days)?
A: 3.50 ± 0.71

Q: And the water uptake ([2]; TCDD 110.0 μg/kg + UDCA 0.5 wt %, 50 days)?
A: 3.14 ± 0.59

Q: And the water uptake ([2]; TCDD 110.0 μg/kg + UDCA 0.5 wt %, 60 days)?
A: 3.32 ± 0.33

Q: What about the feed uptake [3, 4] of the same compound?
A: 4.64 ± 0.73

Q: What about the feed uptake [3, 5] of the same compound?
A: 4.55 ± 0.44

Q: And the feed uptake [3, 6]?
A: 3.83 ± 0.36

Q: And the feed uptake [3, 7]?
A: 3.83 ± 0.36

Q: What about the feed uptake [3, 8] of the same compound?
A: 3.19 ± 0.13

Q: What about the feed uptake [3, 9] of the same compound?
A: 2.59 ± 0.23

Q: What about the feed uptake [3, 10] of the same compound?
A: 4.39 ± 0.79

Q: What about the feed uptake [3, 11] of the same compound?
A: 4.86 ± 0.90

Q: What about the feed uptake [3, 12] of the same compound?
A: 3.78 ± 0.57

Q: What about the feed uptake [3, 13] of the same compound?
A: 3.78 ± 0.57

Q: What about the feed uptake [3, 14] of the same compound?
A: 3.18 ± 0.56

Q: And the feed uptake [3, 15]?
A: 2.90 ± 0.30

Q: And the feed uptake [3, 16]?
A: 4.48 ± 0.67

Q: And the feed uptake [3, 17]?
A: 4.00 ± 1.11

Q: And the feed uptake [3, 18]?
A: 4.66 ± 0.67

Q: And the feed uptake [3, 19]?
A: 4.66 ± 0.67

Q: And the feed uptake [3, 20]?
A: 3.12 ± 0.40

Q: And the feed uptake [3, 21]?
A: 3.35 ± 1.56

Q: What about the feed uptake [3, 22] of the same compound?
A: 4.15 ± 0.64

Q: What about the feed uptake [3, 23] of the same compound?
A: 3.85 ± 0.43

Q: And the feed uptake [3, 24]?
A: 3.99 ± 0.34

Q: What about the feed uptake [3, 25] of the same compound?
A: 3.72 ± 0.21

Q: And the feed uptake [3, 26]?
A: 2.90 ± 0.98

Q: What about the feed uptake [3, 27] of the same compound?
A: 2.96 ± 0.29

Q: And the feed uptake [3, 28]?
A: 4.07 ± 0.40

Q: What about the feed uptake [3, 29] of the same compound?
A: 3.41 ± 0.71

Q: And the feed uptake [3, 30]?
A: 3.59 ± 0.38

Q: And the feed uptake [3, 31]?
A: 3.32 ± 0.39

Q: What about the feed uptake [3, 32] of the same compound?
A: 3.16 ± 0.24

Q: And the feed uptake [3, 33]?
A: 3.10 ± 0.77

Q: What about the feed uptake [3, 34] of the same compound?
A: 4.31 ± 1.49

Q: And the feed uptake [3, 35]?
A: 4.67 ± 1.13

Q: And the feed uptake [3, 36]?
A: 3.99 ± 0.36
